Measured values from patent publication US11022604B2, “Dock derived compound against laminin receptor (37 LR) and uses thereof” (Purdue Research Foundation, priority 2017, dated 2021).
Like-named read-outs stand apart in the source and are kept apart here.

Test system: PC-3 androgen independent metastatic prostate cancer cells
Experiment: Cell viability screen (CCK-8), PC-3 cells
Type: cell-based
Conditions: CCK-8, 96 hours, read-out: IC50, inhibition of cell viability
Method: FIGS. 2A-2H. Dose response curves. Does response curves for cell lines treated with 6, 10.5, 18.6, 32.4, 57.5 and 100 μM of compound (log) for 96 hours using % cell viability derived from CCK-8 absorbance readings at 450 nm (n=3, mean±SEM). A DMSO equivalent control (n=2±SEM) was also included for each cell line tested: Ea.hy.926 endothelial cells (Endo), LNCaP androgen dependent metastatic prostate cancer cells, TC2-Ras mouse prostate cancer cells, PC-3 androgen independent metastatic prostate cancer cells, and SH-SY5Y neruoblastoma cells. […]
Cell Viability Screen. […] Cell viability was measured by using the cell counting kit-8 (CCK-8, Dojindo). […] CCK-8 absorbance was measured at 450 nm using a GloMax Multimode Reader (Promega). Readings were performed the day after seeding to normalize for variations in cell seeding and after 96 hours of compound treatment. After each reading, CCK-8 media was removed and replaced with media containing compound as described previously. […] As described previously, an initial baseline CCK-8 reading was performed at 24 hours post seeding to correct for variations in seeding density. First, 450 nm values for each well were subtracted from media only readings to correct for baseline absorbance. Then, the 96 hour readings were normalized to their respective 24 hour readings to control for seeding variation. […]

IC50: ~1 µM | IC50 (Homo sapiens, PC-3, 96 h): ~0.8 µM
SMILES: O=C(c1cc(F)cc2c1OCOC2)N1CCN(C2c3ccccc3-c3ccccc32)CC1 [Compound C3, [4-(9h-fluoren-9-yl)piperazino](6-fluoro-4h-1,3-benzodioxin-8-yl)methanone]
